Data set [1] addresses Recombinant full length human OGA enzyme (Homo sapiens (Human), UniProt O60502). In words: OGA Enzyme Inhibition Biochemical Assay. To be noted: 1 nM OGA, 100 μM 4-MUGlcNAc, 90 minutes, pH 6.4. The method in brief:
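Full-length recombinant human OGA with fluorogenic 4-MUGlcNAc in McIlvaine buffer pH 6.4, 0.01% BSA; 90 min at room temperature, glycine pH 10 quench, fluorescence Ex 355/Em 460 nm. 10-point, 4-fold dilution from 20 μM; 4-parameter variable-slope fit.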

The next data set deals with OGA (S400 O-GLCNAC) (Homo sapiens (Human), UniProt O60502). Kind of data set: Cellular OGA-Tau MSD Assay. The data set is classed as cell-based. To be noted: HEK-293T cells transfected with OGT and Tau-V5; Tau-S400-GlcNAc MSD readout. An outline of the steps:
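HEK-293T cells transiently co-expressing OGT and Tau-V5 were treated overnight at 37° C with compounds (top 1 uM, 3-fold, 10 points). Lysate Tau was captured on V5 antibody, and S400-GlcNAc was detected by MSD electrochemiluminescence. IC50 was derived from a 4-parameter fit of normalized % activity.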

A short description of data set [2]: Rat Liver Microsome Stability Assay. To be noted: rat liver microsomes 0.5 mg/mL, compound 1 μM; Qh 55 mL/minute/kg. In general terms: Liver microsomes are vesicles of endoplasmic reticulum, rich in cytochrome P450 enzymes.
Method: Aliquots (40 uL) at 0, 5, 10, 15, 25 and 40 minutes post NADPH addition (or compound addition for reactions in absence of NADPH) were transferred into individual 96-well plate wells containing 40 ng/ml of 8-cyclopently-1,3-dipropylxanthine (CPDPX, internal standard) in 160 uL acetonitrile:methanol (1:1 v/v).
The LC/MS/MS system consisted of an ultra high throughput RapidFire® 300 system (Agilent Technologies, Santa Clara, CA) coupled to a Triple Quad 5500 mass spectrometer (ABSciex, Foster City, CA). Sample load and wash were performed on a RapidFire® C4 cartridge using 0.1% formic acid in water as mobile phase A and sample elution using 0.1% formic acid in acetonitrile:methanol (1:1 v/v) as mobile phase B.
CLint, app (apparent intrinsic clearance) was calculated using the following equation for microsome stability.
[formula] • where “a” represents 45 grams of liver/kg of body weight for rat. • CLint,app (apparent intrinsic clearance) was calculated using the following equation for hepatocyte stability: • CLhep (hepatic clearance) was calculated using the following equation for microsomes
[formula] • using 55 mL/minute/kg as Qh (hepatic blood flow) for rat.
The next data set has as its system P-gp (MDR1). In words: MDR1-MDCK Efflux Ratio Assay. The note with it: dog, MDR1-MDCK cells, pH 7.4, read-out: MDR1-MDCK Efflux Ratio (B-A/A-B). The data set is classed as in vitro ADME. The procedure: MDR1-MDCK cell monolayers were grown to confluence on microporous polyester membranes in 96-well Corning insert plates. The permeability assay buffer was Hanks' Balanced Salt Solution containing 10 mM HEPES at pH of 7.4. Loperamide (1 μM) was used as a positive control P-gp substrate. Propranolol and Bestatin (1 μM) were used as high and low permeability comparators, respectively.
Test compounds or positive control P-gp substrate/permeability comprators were added to respective apical and basolateral chambers for bidirectional assessment of permeability. Receiver buffer (transport buffer supplemented with 1% bovine serum albumin) was added to respective receiver chambers. MDR1-MDCK cells were incubated with test compounds at 37° C. with 5% CO2 for 2 hr. Samples were collected from the donor chamber at both 0 and 120 minutes, and from the receiver chamber at 120 minutes. Test and control compound concentrations were determined using LC-MS/MS analysis. Each determination was performed in triplicate.

Recombinant full length human OGA enzyme, sequence (O60502 whole entry): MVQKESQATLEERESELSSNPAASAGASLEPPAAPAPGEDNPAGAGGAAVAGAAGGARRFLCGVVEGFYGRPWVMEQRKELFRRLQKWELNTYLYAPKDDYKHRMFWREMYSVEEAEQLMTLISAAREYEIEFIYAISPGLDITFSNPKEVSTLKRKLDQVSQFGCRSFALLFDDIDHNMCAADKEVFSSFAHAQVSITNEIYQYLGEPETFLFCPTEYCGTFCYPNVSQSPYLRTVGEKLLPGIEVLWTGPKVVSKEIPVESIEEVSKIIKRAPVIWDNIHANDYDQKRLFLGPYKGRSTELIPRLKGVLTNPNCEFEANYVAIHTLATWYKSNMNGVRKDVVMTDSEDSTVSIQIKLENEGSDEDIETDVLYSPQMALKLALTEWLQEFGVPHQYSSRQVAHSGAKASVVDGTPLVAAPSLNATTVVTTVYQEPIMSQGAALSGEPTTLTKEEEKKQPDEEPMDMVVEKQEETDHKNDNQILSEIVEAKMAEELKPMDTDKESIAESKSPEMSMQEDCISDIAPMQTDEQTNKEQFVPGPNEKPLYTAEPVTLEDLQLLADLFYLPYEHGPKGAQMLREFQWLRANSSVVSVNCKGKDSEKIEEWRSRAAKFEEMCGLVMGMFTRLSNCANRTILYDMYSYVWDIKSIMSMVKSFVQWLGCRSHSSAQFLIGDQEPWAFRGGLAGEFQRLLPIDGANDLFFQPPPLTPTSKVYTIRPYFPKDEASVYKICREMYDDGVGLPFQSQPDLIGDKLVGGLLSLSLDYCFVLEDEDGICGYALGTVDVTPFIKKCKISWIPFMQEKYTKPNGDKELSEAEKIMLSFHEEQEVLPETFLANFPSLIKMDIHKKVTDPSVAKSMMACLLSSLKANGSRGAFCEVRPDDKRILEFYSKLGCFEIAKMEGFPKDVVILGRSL
OGA (S400 O-GLCNAC), sequence (O60502 whole entry): as above

Broadly, the IC50 is the midpoint of a concentration-inhibition curve. As for `COCCN(C)c1cc2c(cn1)O[C@]1(C2)C[C@H](C)N(Cc2sc(NC(C)=O)nc2F)C1` [Example 33, N-(4-Fluoro-5-(((2R,5′S)-5-((2-methoxyethyl)(methyl)amino)-5′-methyl-3H-spiro[furo[2,3-c]pyridine-2,3′-pyrrolidin]-1′-yl)methyl)thiazol-2-yl)acetamide], the IC50 was < 1 nM in data set [1] and 2 nM against OGA (S400 O-GLCNAC). The “RLM % Qh (%)” value in data set [2] was determined as 82%. The efflux ratio at 2 hr with P-gp (MDR1) worked out at 22.
For `CC(=O)Nc1ncc(CN2C[C@@]3(Cc4cc(N5CCC5)ncc4O3)C[C@@H]2C)s1` [Example 35, N-(5-(((2R,5′S)-5-(Azetidin-1-yl)-5′-methyl-3H-spiro[furo[2,3-c]pyridine-2,3′-pyrrolidin]-1′-yl)methyl)thiazol-2-yl)acetamide] the same measures were < 1 nM, 4 nM, 50% and 39.5.
`CC(=O)Nc1nc(F)c(CN2C[C@@]3(Cc4cc(N5CCOCC5)ncc4O3)C[C@@H]2C)s1` [Example 36, N-(4-Fluoro-5-(((2R,5′S)-5′-methyl-5-morpholino-3H-spiro[furo[2,3-c]pyridine-2,3′-pyrrolidin]-1′-yl)methyl)thiazol-2-yl)acetamide]: the IC50 in data set [1] was < 1 nM; against OGA (S400 O-GLCNAC), 8 nM. In data set [2], the “RLM % Qh (%)” value stood at 51%. Besides, the efflux ratio at 2 hr in the data set on P-gp (MDR1) came out at 9.3.
For `CC(=O)Nc1ncc(CN2C[C@@]3(Cc4cc(N5C[C@@H](C)O[C@@H](C)C5)ncc4O3)C[C@@H]2C)s1` [Example 38, N-(5-(((2R,5′S)-5-((2R,6S)-2,6-Dimethylmorpholino)-5′-methyl-3H-spiro[furo[2,3-c]pyridine-2,3′-pyrrolidin]-1′-yl)methyl)thiazol-2-yl)acetamide], in that order: 1.2 nM, 9.9 nM, 42% and 29.5.
Turning to `CC(=O)Nc1nc(F)c(CN2C[C@@]3(Cc4cc(N5C[C@@H](C)O[C@@H](C)C5)ncc4O3)C[C@@H]2C)s1` [Example 39, N-(5-(((2R,5′S)-5-((2R,6S)-2,6-Dimethylmorpholino)-5′-methyl-3H-spiro[furo[2,3-c]pyridine-2,3′-pyrrolidin]-1′-yl)methyl)-4-fluorothiazol-2-yl)acetamide], the values for the 50% inhibitory concentration (IC50) (in data set [1]; against OGA (S400 O-GLCNAC)) were 0.5 nM and 4.9 nM, respectively. The “RLM % Qh (%)” value in data set [2] was found to be 52%. Also, the efflux ratio at 2 hr in the data set on P-gp (MDR1) is 9.7.
Take `CC(=O)Nc1ncc(CN2C[C@@]3(Cc4cc(N5C[C@@H](C)O[C@H](C)C5)ncc4O3)C[C@@H]2C)s1` [Example 40, N-(5-(((2R,5′S)-5-((2R,6R)-2,6-Dimethylmorpholino)-5′-methyl-3H-spiro[furo[2,3-c]pyridine-2,3′-pyrrolidin]-1′-yl)methyl)thiazol-2-yl)acetamide]: the IC50 in data set [1] amounted to 1.5 nM; at OGA (S400 O-GLCNAC), 14 nM. Besides, the “RLM % Qh (%)” value in data set [2] came to 54%. The efflux ratio at 2 hr with P-gp (MDR1) was 27.
For `CC(=O)Nc1nc(F)c(CN2C[C@@]3(Cc4cc(N5C[C@@H](C)O[C@H](C)C5)ncc4O3)C[C@@H]2C)s1` [Example 41, N-(5-(((2R,5′S)-5-((2R,6R)-2,6-Dimethylmorpholino)-5′-methyl-3H-spiro[furo[2,3-c]pyridine-2,3′-pyrrolidin]-1′-yl)methyl)-4-fluorothiazol-2-yl)acetamide], in that order: < 1 nM, 8 nM, 65% and 19.5.
Take `CC(=O)Nc1ncc(CN2C[C@@]3(Cc4cc(N5C[C@H](C)O[C@@H](C)C5)ncc4O3)C[C@@H]2C)s1` [Example 42, N-(5-(((2R,5′S)-5-((2S,6S)-2,6-Dimethylmorpholino)-5′-methyl-3H-spiro[furo[2,3-c]pyridine-2,3′-pyrrolidin]-1′-yl)methyl)thiazol-2-yl)acetamide]: the IC50 was found to be 1.9 nM in data set [1] and 14 nM at OGA (S400 O-GLCNAC). The “RLM % Qh (%)” value in data set [2] came to 66%. In addition, the efflux ratio at 2 hr in the data set on P-gp (MDR1) was 25.
With `CC(=O)Nc1nc(F)c(CN2C[C@@]3(Cc4cc(N5C[C@H](C)O[C@@H](C)C5)ncc4O3)C[C@@H]2C)s1` [Example 43, N-(5-(((2R,5′S)-5-((2S,6S)-2,6-Dimethylmorpholino)-5′-methyl-3H-spiro[furo[2,3-c]pyridine-2,3′-pyrrolidin]-1′-yl)methyl)-4-fluorothiazol-2-yl)acetamide], the 50% inhibitory concentration (IC50) in data set [1] is < 1 nM; at OGA (S400 O-GLCNAC), 8 nM. The “RLM % Qh (%)” value in data set [2] amounted to 75%. Besides, the efflux ratio at 2 hr with P-gp (MDR1) turned out to be 17.5.
As for `CC(=O)Nc1nc(F)c(CN2C[C@@]3(Cc4cc(N5CCN(C)CC5)ncc4O3)C[C@@H]2C)s1` [Example 45, N-(4-Fluoro-5-(((2R,5′S)-5′-methyl-5-(4-methylpiperazin-1-yl)-3H-spiro[furo[2,3-c]pyridine-2,3′-pyrrolidin]-1′-yl)methyl)thiazol-2-yl)acetamide], the 50% inhibitory concentration (IC50) in data set [1] is < 1 nM; against OGA (S400 O-GLCNAC), 3 nM. Also, in data set [2], the “RLM % Qh (%)” value came out at 65%. In addition, the efflux ratio at 2 hr in the data set on P-gp (MDR1) is 94.
In the case of `COCCOc1cc2c(cn1)O[C@]1(C2)C[C@H](C)N(Cc2sc(NC(C)=O)nc2F)C1` [Example 47, N-(4-Fluoro-5-(((2R,5′S)-5-(2-methoxyethoxy)-5′-methyl-3H-spiro[furo[2,3-c]pyridine-2,3′-pyrrolidin]-1′-yl)methyl)thiazol-2-yl)acetamide], the values for the IC50 (in data set [1]; against OGA (S400 O-GLCNAC)) were < 1 nM and 9 nM, respectively. Further, in data set [2], the “RLM % Qh (%)” value was 53%. In the data set with P-gp (MDR1), the efflux ratio at 2 hr was 9.2.
As for `CC(=O)Nc1nc(F)c(CN2C[C@@]3(Cc4cc(=O)n(C)cc4O3)C[C@@H]2C)s1` [Example 48, N-(5-(((2R,5′S)-5′,6-Dimethyl-5-oxo-5,6-dihydro-3H-spiro[furo[2,3-c]pyridine-2,3′-pyrrolidin]-1′-yl)methyl)-4-fluorothiazol-2-yl)acetamide], the results for the IC50 (in data set [1]; against OGA (S400 O-GLCNAC)) were 1.4 nM and 34 nM, respectively. Besides, the “RLM % Qh (%)” value in data set [2] is 16%. Further, the efflux ratio at 2 hr with P-gp (MDR1) is 12.
For `CC(=O)Nc1nc(F)c(CN2C[C@@]3(Cc4cc(=O)[nH]cc4O3)C[C@@H]2C)s1` [Example 49, N-(4-Fluoro-5-(((2R,5′S)-5′-methyl-5-oxo-5,6-dihydro-3H-spiro[furo[2,3-c]pyridine-2,3′-pyrrolidin]-1′-yl)methyl)thiazol-2-yl)acetamide] the same measures were 1 nM, 73 nM, 16% and 2.5.
On to `CC(=O)Nc1ncc(CN2CCCC3(CCCO3)C2)s1` (stereo not drawn) [Example 52, N-(5-((1-Oxa-7-azaspiro[4.5]decan-7-yl)methyl)thiazol-2-yl)acetamide], for which the concentration for half-maximal inhibition (IC50) in data set [1] was 180 nM; at OGA (S400 O-GLCNAC), > 1000 nM. Also, the “RLM % Qh (%)” value in data set [2] worked out at 74%. The efflux ratio at 2 hr in the data set on P-gp (MDR1) came to 2.6.
For `CC(=O)Nc1nc(F)c(CN2CCCC3(COc4ccccc43)C2)s1` (stereo not drawn) [Example 54, N-(5-((2H-Spiro[benzofuran-3,3′-piperidin]-1′-yl)methyl)-4-fluorothiazol-2-yl)acetamide], in that order: 1500 nM, > 1000 nM, 94% and 0.8.
As to `CC(=O)Nc1ncc(CN2CCC3(C2)OCc2ccccc23)s1` (stereo not drawn) [Example 57, N-(5-((3H-Spiro[isobenzofuran-1,3′-pyrrolidin]-1′-yl)methyl)thiazol-2-yl)acetamide], the concentration for half-maximal inhibition (IC50) in data set [1] amounted to 170 nM; on OGA (S400 O-GLCNAC), 818 nM. The “RLM % Qh (%)” value in data set [2] came out at 88%. Moreover, in the data set with P-gp (MDR1), the efflux ratio at 2 hr worked out at 2.4.
`CC(=O)Nc1ncc(CN2CC3(C[C@@H]2C)OCc2ccccc23)s1` (stereo partly drawn) [Example 59, N-(5-(((5′S)-5′-Methyl-3H-spiro[isobenzofuran-1,3′-pyrrolidin]-1′-yl)methyl)thiazol-2-yl)acetamide]: the 50% inhibitory concentration (IC50) in data set [1] is 9 nM; at OGA (S400 O-GLCNAC), 16 nM. The “RLM % Qh (%)” value in data set [2] was found to be 94%. The efflux ratio at 2 hr in the data set with P-gp (MDR1) was determined as 3.5.
With `CC(=O)Nc1nc(F)c(CN2CC3(C[C@@H]2C)OCc2cccnc23)s1` (stereo partly drawn) [Example 63, N-(4-Fluoro-5-(((5′S)-5′-methyl-5H-spiro[furo[3,4-b]pyridine-7,3′-pyrrolidin]-1′-yl)methyl)thiazol-2-yl)acetamide], the figures for the half-maximal inhibitory concentration (IC50) (in data set [1]; against OGA (S400 O-GLCNAC)) were 13 nM and 57 nM, respectively. Also, the “RLM % Qh (%)” value in data set [2] amounted to 78%. The efflux ratio at 2 hr with P-gp (MDR1) turned out to be 26.

Values taken from US12565504B2, “Spirocyclic O-glycoprotein-2-acetamido-2-deoxy-3-d-glucopyranosidase inhibitors” (BIOGEN MA INC., priority 2019, dated 2026).
